Assay: Rancimat oxidative stability test of peanut oil
Conditions: Rancimat 100° C., 20 cc/min air, average of duplicate
Text: The procedures described in Examples 1, 2 and 3 were used to prepare cocoa extracts which were manipulated further to produce two fractions from gel permeation chromatography. These two fractions are actually combined fractions A through C, and D and E (See FIG. 1) whose antioxidant properties were compared against the synthetic antioxidants BHA and BHT.
Peanut Oil was pressed from unroasted peanuts after the skins were removed. Each test compound was spiked into the oil at two levels about 100 ppm and about 20 ppm, with the actual levels given in Table 7.50 μL of methanol solubilized antioxidant was added to each sample to aid in dispersion of the antioxidant. A control sample was prepared with 50 μL of methanol containing no antioxidant.
The samples were evaluated in duplicate, for oxidative stability using the Rancimat stability test at 100° C. and 20 cc/min of air. Experimental parameters were chosen to match those used with the Active Oxygen Method (AOM) or Swift Stability Test (Van Oosten et al., 1981). Results are reported in Table 8 as hours required to reach a peroxide level of 100 meq.

[1] = 20 ppm (actual 20-24 ppm, Table 7)
[2] = 100 ppm (actual 100-120 ppm, Table 7)

SMILES	Oxidative stability of peanut oil: hours required to reach a peroxide level of 100 meq [1] [h]	Oxidative stability of peanut oil: hours required to reach a peroxide level of 100 meq [2] [h]
COc1ccc(O)c(C(C)(C)C)c1 [BHA, Butylated Hydroxyanisole]	13.5 ± 2.1	14.0 ± 1.4
Cc1cc(C(C)(C)C)c(O)c(C(C)(C)C)c1 [BHT, Butylated Hydroxytoluene]	16.5 ± 2.1	12.5 ± 2.1
